Columns and labels:
Leishmania donovani [1] = experiment: GSK_TCAKS: pIC50 Leishmania donovani viability assay using fluorescence intensity. Assay plates (1536-well) were prepared by adding 30nL per well of compound. For single shot assay, the final compound concentration was 5uM. […] Briefly, eGFP LdBOB axenic amastigotes were harvested, fixed and counted in a CASY cell counter (Roche-Applied Science). A final concentration of 1.5 * 10^5 cells per well were prepared in amastigote media containing 500 U/mL penicillin/streptomycin (Invitrogen) and 6uL was dispensed to each experimental well using a Multidrop Combi dispenser (Thermo Scientific). 6uL of assay media was dispensed to control columns used as reference for 100% compound response. Following incubation for 72 h at 37C, 5% CO2, 2 uL of resazurin was added to each well at a final concentration of 0.5 mM in phosphate buffered saline (PBS) with IGEPAL (Sigma-Aldrich), 0.05% (v/v).; type: functional, organism-based
Trypanosoma cruzi [2] = experiment: GSK_TCAKS: pIC50 Trypanosoma cruzi Imaging: Amastigotes/Cell. […] Cells were then washed once with PBS before infection. T. cruzi trypomastigotes, collected at days 5 to 8 after infection from LLC-MK2 parasite infected cultures, were allowed to swim out for 4h at 37C from a centrifuged pellet (2,500 rpm/10 min/room temperature). Trypomastigotes were then collected and counted in a CASY Cell Counter. Trypomastigotes, in supplemented DMEM, were added to H9c2 cultures in a multiplicity of infection of 1 and incubated for 18 h. Cells were washed once with PBS before incubation of the infected H9c2 monolayer with trypsin (Life-Technologies) to detach cells from the flask. Cells were counted in a CASY Cell Counter using a 150 um capillary and their density set at 5 * 10^4 cells per mL in supplemented assay DMEM. Infected H9c2 were dispensed into 384-well poly-lysine coated assay plates at 50uL per well using a Multidrop Combi dispenser. After seeding them, the plates were incubated at 37C, 5% CO2 for 72h. Cultures were then fixed and stained by addition of 50 uL of a solution containing 8% formaldehyde and 4 uM DRAQ5 DNA dye (BioStatus, UK) per well. […] Five images were collected per well for reliable statistical analysis. Automated image analysis was performed with a script developed on Acapella High Content Imaging and Analysis Software (PerkinElmer). Output: number of amastigotes per cell as infection level measurement.; type: functional, organism-based, Rattus norvegicus; settings: H9c2, 4 h
Trypanosoma cruzi [3] = experiment: GSK_TCAKS: pIC50 Trypanosoma cruzi viability assay using beta-GAL activity. This assay was run at single shot at 5uM compound concentration per well. The biological reagents consisted of NIH-3T3 host cells and trypomastigotes parasitic cells; both cell types were set to a 3.3 * 10^5 cells/mL dilution in assay DMEM by means of a CASY cell counter device using a 60um capillary. 6 uL of the mixture were dispensed per well (about 1 * 10^3 host-cells and 1 * 10^3 parasites) with a Multidrop Combi dispenser. […] In all wells, the percentage of DMSO never exceeded 0.5%. Plates incubated for four days at 37C, 5% CO2. The substrate used for the assay fluorescence intensity (FLINT) readout was resorufin-beta-D-galactopiranoside (Sigma-Aldrich) at 5uM per well. It was diluted in PBS supplemented with the soft detergent Igepal (Fluka).; type: functional, organism-based, Mus musculus; settings: Tulahuen, NIH3T3
[4] = system: Trypanosoma brucei brucei; experiment: GSK_TCAKS: pIC50 Trypanosoma brucei viability assay using fluorescence intensity. Assay plates (1536-well) were prepared by dispensing 25nL of compound solution per well using an Echo acoustic dispenser (Labcyte).; type: functional, organism-based; settings: Lister 427, 2 h
Leishmania donovani [5] = experiment: (§1) GSK_TCAKS: pIC50 Leishmania donovani Imaging: Amastigotes/Macrophages. Assay plates (384-well) were prepared by adding 250nL of compound to each well. For single shot assay, the final compound concentration was 5 uM. […] Automated image analysis was performed with a script developed on Acapella High Content Imaging and Analysis Software (PerkinElmer). Output: Average number of amastigotes per macrophage cell were reported for each well.; type: functional, organism-based, Homo sapiens; settings: THP-1
[6] = GSK_TCAKS: pIC50 HepG2 human cell line viability assay using luminiscence. […] Seeding density was checked to ensure that new mono-layers were not more than 50% confluent at the time of harvesting. Cell suspension was added to 500 mL of the same medium at a final density of 1.2 * 10^5 cells/mL. This cell suspension was dispensed (25 uL, 3000 cells per well) into 384-well clear-bottom plates using a Multidrop Combi dispenser. Prior to addition of the cell suspension, the screening compounds (250 nL) were pre-dispensed into the plates with an Echo liquid handler. Plates were incubated for 48 h at 37C, 5% CO2. After incubation, plates equilibrated at room temperature for 30 min before proceeding to develop the luminescent signal. The signal developer, CellTiter-Glo Reagent, was allowed to equilibrate at room temperature for 30 min and added to the plates (25uL per well) using a Multidrop Combi dispenser. Plates were left for 10 min at room temperature for stabilization and then read using a ViewLux.; type: toxicity, cell-based
Leishmania donovani [7] = experiment: as §1, with “Infected Macrophages.” for “Amastigotes/Macrophages.”, “Percent” for “Average number”, “infected” for “amastigotes per”, “cells” for “cell”; type: functional, organism-based, Homo sapiens; settings: THP-1
[8] = target: Sterol 14-alpha demethylase (Trypanosoma cruzi (strain CL Brener), UniProt Q7Z1V1); experiment: GSK_TCAKS: pIC50 CYP51 from Trypanosoma cruzi.; type: functional
Sequence of Sterol 14-alpha demethylase (Q7Z1V1 whole entry): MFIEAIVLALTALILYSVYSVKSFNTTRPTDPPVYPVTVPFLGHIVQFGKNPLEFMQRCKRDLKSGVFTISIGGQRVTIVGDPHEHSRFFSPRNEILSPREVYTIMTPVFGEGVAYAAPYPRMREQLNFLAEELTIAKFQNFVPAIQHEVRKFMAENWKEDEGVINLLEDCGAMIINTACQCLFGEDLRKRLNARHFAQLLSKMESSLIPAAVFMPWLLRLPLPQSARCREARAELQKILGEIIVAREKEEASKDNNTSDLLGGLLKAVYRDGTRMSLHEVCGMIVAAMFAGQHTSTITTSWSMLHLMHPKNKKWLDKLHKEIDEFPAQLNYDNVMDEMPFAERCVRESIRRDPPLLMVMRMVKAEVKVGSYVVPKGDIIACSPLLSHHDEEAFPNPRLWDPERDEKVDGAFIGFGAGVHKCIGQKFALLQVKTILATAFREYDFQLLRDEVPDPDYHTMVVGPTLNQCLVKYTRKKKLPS

NIH3T3 = experiment: GSK_TCAKS: pIC50 NIH 3T3 cell line viability assay using luminiscence. Tissue culture surface treated assay plates (1536-well) were used. […] The 100% cells survival control was determined exposing the host-cells to a 0.5% DMSO concentration, whereas the 100% toxicity control was achieved by seeding the cells in presence of Amphotericin B at 50uM. Plates were incubated for four days at 37C, 5% CO2. The assay readout was developed by addition of 5uL of CellTiter-Glo Reagent following the manufacturer's instructions. Luminiscence was measured using a ViewLux.; type: functional, cell-based; settings: Mus musculus, NIH3T3, 96 h
Trypanosoma cruzi [9] = experiment: (§2) GSK_TCAKS: pIC50 Trypanosoma cruzi Imaging: Infected Cells. […] Cells were then washed once with PBS before infection. T. cruzi trypomastigotes, collected at days 5 to 8 after infection from LLC-MK2 parasite infected cultures, were allowed to swim out for 4h at 37C from a centrifuged pellet (2,500 rpm/10 min/room temperature). Trypomastigotes were then collected and counted in a CASY Cell Counter. Trypomastigotes, in supplemented DMEM, were added to H9c2 cultures in a multiplicity of infection of 1 and incubated for 18 h. Cells were washed once with PBS before incubation of the infected H9c2 monolayer with trypsin (Life-Technologies) to detach cells from the flask. Cells were counted in a CASY Cell Counter using a 150 um capillary and their density set at 5 * 10^4 cells per mL in supplemented assay DMEM. Infected H9c2 were dispensed into 384-well poly-lysine coated assay plates at 50uL per well using a Multidrop Combi dispenser. After seeding them, the plates were incubated at 37C, 5% CO2 for 72h. Cultures were then fixed and stained by addition of 50 uL of a solution containing 8% formaldehyde and 4 uM DRAQ5 DNA dye (BioStatus, UK) per well. […] Five images were collected per well for reliable statistical analysis. Automated image analysis was performed with a script developed on Acapella High Content Imaging and Analysis Software (PerkinElmer). Output: percentage of infected cells per well as a second infection marker.; type: functional, organism-based, Rattus norvegicus; settings: H9c2, 4 h
Trypanosoma cruzi [10] = experiment: as §2, with “H2C9” for “Trypanosoma cruzi”, “H9c2 Host Cardiomyocytes.” for “Infected Cells.”, “Number” for “percentage”, “H9c2 Host Cardiomyocytes nuclei to determine drug-related cytotoxicity.” for “infected cells per well as a second infection marker.”; type: functional, organism-based, Rattus norvegicus; settings: H9c2, 4 h
Leishmania donovani [11] = experiment: as §1, with “THP-1 Host Macrophages.” for “Amastigotes/Macrophages.”, “THP-1” for “Average number of amastigotes per macrophage”, “cell count” for “cell”; type: functional, organism-based, Homo sapiens
[12] = system: Trypanosoma brucei brucei; experiment: GSK_TCAKS: pIC50 Trypanosoma brucei viability assay using luminiscence. Assay plates (1536-well) were prepared. T. brucei cultures were harvested and counted in a CASY cell counter. A parasite suspension was prepared at a final concentration of 5 * 10^4 cells/mL in complete HMI9 medium and 6uL was dispensed to all wells containing compounds using a Multidrop Combi dispenser. 6uL of HMI9 media with 0.4% DMSO were dispensed to control columns. Plates were incubated for 24 h at 37C, 5% CO2 then tempered for 10 min at room temperature. ATP content was quantified by adding 4 uL of CellTiter-Glo Reagent (Promega) according to the manufacturer's instructions. Luminescence was measured using a ViewLux.; type: functional, organism-based; settings: Lister 427, CASY

Row | Compound | IC50 (Leishmania donovani [1]) [µM] | IC50 (Trypanosoma cruzi [2]) [µM] | IC50 (Trypanosoma cruzi [3]) [µM] | IC50 [4] [µM] | IC50 (Leishmania donovani [5]) [µM] | IC50 at 48 h [6] [µM] | IC50 (Leishmania donovani [7]) [µM] | IC50 [8] [µM] | IC50 (NIH3T3) [µM] | IC50 (Trypanosoma cruzi [9]) [µM] | IC50 (Trypanosoma cruzi [10]) [µM] | IC50 (Leishmania donovani [11]) [µM] | IC50 [12] [µM]
1 | COc1cccc(-c2cc(C(F)(F)F)nc(-n3ccc([N+](=O)[O-])n3)n2)c1 | > 50.1 | 0.2 | 0.398 | 31.6 | > 50.1 | > 100 | > 50.1 | > 100 | > 50.1 | 0.398 | > 50.1 | > 50.1 | > 39.8
2 | COc1ccc(-c2nc3ncccc3o2)cc1NC(=O)c1cccs1 | 5.01 | 2 | 2 | 1.26 | > 50.1 | > 100 | > 50.1 | > 100 | > 50.1 | 2.51 | > 50.1 | 20 | 2.51
3 | Cn1nc([N+](=O)[O-])nc1N1CCCCC1 | > 50.1 | 1 | 1.26 | > 39.8 | > 50.1 | > 100 | > 50.1 | > 100 | > 50.1 | 12.6 | > 50.1 | > 50.1 | > 39.8
4 | COc1cc(C(C)C)c(S(C)(=O)=O)cc1C(=O)N1CCN(c2ccccc2Cl)CC1 | 5.01 | 2 | 1.58 | 25.1 | 12.6 | > 100 | 15.8 | > 100 | > 50.1 | 2.51 | 20 | 15.8 | 31.6
5 | O=C(NCc1ccc(-n2cccc2)cc1)c1nc(Cn2ccc([N+](=O)[O-])n2)no1 | > 50.1 | 1.26 | 2.51 | > 39.8 | > 50.1 | > 100 | > 50.1 | > 100 | 50.1 | 2.51 | > 50.1 | > 50.1 | > 39.8
6 | COc1ccc(NS(=O)(=O)c2cccc(NC(=O)c3cc(F)cc(F)c3)c2)cc1 | 3.16 | 0.501 | 0.794 | 0.631 | 20 | 31.6 | > 50.1 | > 100 | 25.1 | 0.501 | > 50.1 | > 50.1 | 1
7 | Cc1cc(N(C)C)nc(Nc2ccccc2C)n1 | > 50.1 | 0.501 | 1.58 | 31.6 | 15.8 | 63.1 | 31.6 | > 100 | 39.8 | 0.794 | > 50.1 | 39.8 | > 39.8
8 | O=C1CSC(c2cccnc2)N1c1ccc(Cl)cc1Cl (stereo not drawn) | 5.01 | 0.158 | 0.0708 | > 39.8 | > 50.1 | > 100 | > 50.1 | 0.158 | > 50.1 | 0.251 | > 50.1 | > 50.1 | > 39.8
9 | CN(C)CCN(C)Cc1ccc(F)cc1NS(=O)(=O)c1ccc(Cl)c(Cl)c1 | 7.94 | 2 | 1.58 | 5.01 | 2.51 | 39.8 | 7.94 | > 126 | 15.8 | 2.51 | 6.31 | 31.6 | 5.01
10 | Cn1nc([N+](=O)[O-])nc1Oc1ccc(C(=O)c2ccccc2)cc1 | > 50.1 | 0.126 | 0.251 | 20 | > 50.1 | > 100 | > 50.1 | > 100 | > 50.1 | 0.316 | > 50.1 | > 50.1 | > 39.8
11 | CN1CCCN(C(=O)c2ccc(N3CCCC3)cc2Cl)CC1 | 39.8 | 0.631 | 0.891 | > 39.8 | > 50.1 | > 100 | > 50.1 | > 100 | 25.1 | 1 | > 50.1 | > 50.1 | > 39.8
12 | COc1ccc(C2CC(c3ccccc3Cl)=NN2C(=O)CNC(=O)C2CCC2)cc1 (stereo not drawn) | > 50.1 | 1 | 2.82 | 0.316 | > 50.1 | > 100 | > 50.1 | 50.1 | 31.6 | 1.58 | > 50.1 | > 50.1 | 0.501
13 | CCC(=O)Nc1ccc(-c2nc3ccc(Cl)cc3[nH]2)cc1 | > 50.1 | 0.501 | 2 | 6.31 | > 50.1 | > 100 | > 50.1 | > 100 | > 50.1 | 1.58 | > 50.1 | > 50.1 | > 39.8
14 | N#Cc1cc([N+](=O)[O-])ccc1NC1CCCCCC1 | > 50.1 | 1.26 | 2.51 | 2.51 | > 50.1 | > 100 | > 50.1 | > 100 | > 50.1 | 2 | > 50.1 | > 50.1 | 3.16
15 | Cc1nnnn1-c1cccc(C(=O)N2CCC[C@@]3(C)c4ncncc4CCC23)c1 (stereo partly drawn) | 0.398 | 0.316 | 0.631 | > 39.8 | 6.31 | > 100 | > 50.1 | 25.1 | > 50.1 | 0.316 | > 50.1 | > 50.1 | > 39.8
16 | O=S(=O)(NCC(c1cccnc1)N1CCN(c2ccccc2F)CC1)c1ccc(F)cc1 (stereo not drawn) | 3.98 | 0.2 | 0.501 | 25.1 | 3.98 | > 100 | > 50.1 | 0.0794 | > 50.1 | 0.2 | > 50.1 | > 50.1 | > 39.8

From ChEMBL document CHEMBL3430912, “GSK Tres Cantos Anti-Kinetoplastid Screening (TCAKS) Data”
